System: Tg mice (APPSwe; PS2N141I; TauP301L)
Test: Triple transgenic (Tg, TauPS2APP) mouse model of Alzheimer's disease-related proteotoxicity, oral daily CA
Assay type: in vivo
Description: FIG. 12. Chemical activation of CMA improves behavior and neuropathology in a mouse model of Alzheimer's disease-related proteotoxicity. (A) Schematic of regimen of CMA activator (CA) administration to TauPS2APP (Tg) mice. (B-D) Performance of Tg mice administered vehicle (Veh) or CMA activator (CA) in the novel object recognition test (B, left plot: % of time dedicated to the novel object; right plot: discrimination index), the elevated plus maze (C) and the forced swim test (D). (E) Clasping score in Tg mice +/− CA: time course of clasping score increase (left) and mean linear regression coefficient (right). (F) Performance of Tg mice +/− CA in horizontal grid test. (G-O) Immunostaining of immature amyloid plaques (MOAB2), mature amyloid depositions (6E10), β-sheet marker (Thioflavin S) and Threonine231-phosphorylated tau (pThr231 tau) in the dorsal hippocampus of Tg mice +/− CA. Montages of individual images from the scanning of whole brain slices are shown. Inset: Higher magnification of pThr231 tau staining. Scale bar: 200 μm. Quantification of images of montages of individual images from the scanning of whole brain slices of percentage of area positive and plaque size for MOAB2 (G, J), 6E10 (H, K) or Thioflavin S (I, L). Relationship between number of plaques and average plaque size for different markers of plaque maturity (ThS>6E10>MOAB2) […]. Quantification of percentage of area positive for pThr231 tau (N) and of the overlap between pThr231 tau staining and 6E10 staining (O). All quantifications (except clasping—E) were done at 12 months, in 4-6 mice per group. Data are mean±s.e.m. Comparisons were made using unpaired t-test (B-D, F, G-O), Two-way ANOVA test followed by Sidak's post-hoc analysis (E). *p<0.05, **p<0.005, ***p<0.0005.
FIG. 13. Effect of chemical activation of CMA in a mouse model of Alzheimer's disease-related proteotoxicity. (A-D) Quantification of size of plaques positive for MOAB2 (t7=3.181, p=0.0155) (A), 6E10 (B) or Thioflavin S (ThS) (C) and of T231-phosphorylated tau pathology (t8=2.382, p=0.0444) (D) in brain cortex from Tg mice administered Veh or CA for 4 months. (E) Summary heatmap highlighting the extent of pathology reduction upon CMA activation in cortex and dorsal hippocampus. * highlights significant difference between Veh and CA administered Tg mice. (F) Immunoblot for S202/T205-phosphorylated (AT8) tau in the brain of Tg mice treated with Veh or CA. Representative immunoblot (left) and densitometric quantification (t8=2.425, p=0.0415) (right). Values were normalized to ponceau and are expressed as folds of Veh treated mice. (G) Number of GFAP-positive astrocytes per area unit (t8=4.058, p=0.0036). (H-I) Representative images of immunostaining of inflammation (microglial marker: Iba1—Green), amyloid pathology (MOAB2—Magenta) and nuclear staining with DAPI (blue) in the dorsal hippocampus of Tg mice administered Veh or CA. Montages of individual images of the dorsal hippocampus from the scanning of whole brain slices are shown. Quantification of number of Iba1-positive microglial cells per area unit (t8=2.041, p=0.0755) (left) and mean cell size (t8=2.079, p=0.0713) (right) (H) and colocalization coefficient between microglia (Iba1) and amyloid plaques (MOAB2) (I) (Mann Whitney U=6, p=0.2571). Mean±s.e.m. and individual values are shown. Comparisons were made using unpaired t-test analysis. *: p<0.05, **: p<0.005.
Male wild-type mice (C57BL/6J) or transgenic for CaMKIIα-Cre (B6.Cg-Tg(Camk2α-cre)T29-1Stl/J, Jackson Laboratory), LAMP-2A^flox/flox (Schneider et al., 2014), Tau^P301L (line pR5), Tg (APP^Swe; PS2^N141I; Tau^P301L), PS19 (Tau^P301S) (Yoshiyama et al., 2007) and Atg7^f/f were used in the study. Conditional LAMP-2A deletion was generated by breeding LAMP-2A^flox/flox with the transgenic Cre mice of interest. […]

[1] = dorsal hippocampus, 30 mg/kg oral daily, 4 months
[2] = hippocampus and cortex, 30 mg/kg oral daily, 4 months

CC(=O)Nc1ccc(-c2cnc3cc(Cl)ccc3n2)cc1 [CA77.1]
visual memory (novel object recognition test) (30 mg/kg oral daily for 4 months from 8 months of age): better visual memory | anxiety- and depression-like behaviors (elevated plus maze, forced swim test) (30 mg/kg oral daily, 4 months): decreased anxiety- and depression-like behaviors | clasping progression (30 mg/kg oral daily, 4 months): slower clasping progression | number of amyloid deposits (30 mg/kg oral daily, 4 months): lower number of deposits depending on the deposit maturity | performance in horizontal grid test (30 mg/kg oral daily, 4 months): increased performance in horizontal grid test | S202/T205-phosphorylated (AT8) tau by immunoblot (brain, 30 mg/kg oral daily, 4 months): significant reduction of the mature phosphosite AT8 | association of glial cells with amyloid plaque-like deposit [1]: less association of glial cells with amyloid plaque-like deposit | number of microglia and astrocytes [1]: lower number of microglia and astrocytes in the dorsal hippocampus | T231 phosphorylated Tau levels [2]: reduced levels of the early T231 phosphorylated Tau | area and size of amyloid plaques (MOAB2, 6E10, thioflavin S) [2]: reduced area and size of immature (MOAB2-positive) and mature (6E10 and thioflavin S-positive) amyloid plaques
